Consider 7 cell lines from the supplement of paper PMC10307832.

What all share (assay): relative viability (nuclei count vs DMSO), 5 days (fraction); higher = more cells survive
Compound in the assay “Carfilzomib + Olaparib”: CC(C)C[C@H](NC(=O)[C@H](CCc1ccccc1)NC(=O)CN1CCOCC1)C(=O)N[C@@H](Cc1ccccc1)C(=O)N[C@@H](CC(C)C)C(=O)[C@@]1(C)CO1 [Carfilzomib] + O=C(c1cc(Cc2n[nH]c(=O)c3ccccc23)ccc1F)N1CCN(C(=O)C2CC2)CC1 [Olaparib] (partner 8 µM)
An outline of the steps:
(§1)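 Values are medians from duplicate plates. Each reflects relative viability, defined as the nuclei count of treated wells over that of vehicle wells. Lung cancer cell lines in 1536-well plates were pin-tool dosed one day after seeding with one drug alone or with a fixed anchor-drug dose plus five library-drug doses (not always all listed) in √10 steps, then fixed, stained and imaged at 4× after 5 days.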

Compound in the assay “Olaparib + Bortezomib”: O=C(c1cc(Cc2n[nH]c(=O)c3ccccc23)ccc1F)N1CCN(C(=O)C2CC2)CC1 [Olaparib] + CC(C)C[C@H](NC(=O)[C@H](Cc1ccccc1)NC(=O)c1cnccn1)B(O)O [Bortezomib] (partner 0.002 µM)
A digest of the protocol: as §1

Compound in the assay “Carfilzomib + Crizotinib”: CC(C)C[C@H](NC(=O)[C@H](CCc1ccccc1)NC(=O)CN1CCOCC1)C(=O)N[C@@H](Cc1ccccc1)C(=O)N[C@@H](CC(C)C)C(=O)[C@@]1(C)CO1 [Carfilzomib] + C[C@@H](Oc1cc(-c2cnn(C3CCNCC3)c2)cnc1N)c1c(Cl)ccc(F)c1Cl [Crizotinib] (partner 1 µM)
A digest of the protocol: as §1

Compound in the assay “Olaparib + Dasatinib”: O=C(c1cc(Cc2n[nH]c(=O)c3ccccc23)ccc1F)N1CCN(C(=O)C2CC2)CC1 [Olaparib] + Cc1nc(Nc2ncc(C(=O)Nc3c(C)cccc3Cl)s2)cc(N2CCN(CCO)CC2)n1 [Dasatinib] (partner 0.075 µM)
An outline of the steps: as §1

LU99A: the relative viability with Carfilzomib + Olaparib (first compound 0.001 µM) was found to be 0.287; with Carfilzomib + Olaparib (first compound 0.003162 µM), 0.233; with Carfilzomib + Olaparib (first compound 0.01 µM) it was 0.276; with Carfilzomib + Olaparib (first compound 0.03162 µM), 0.168; with Carfilzomib + Olaparib (first compound 0.1 µM), 0.137; in the assay with Olaparib + Bortezomib (first compound 0.08 µM) it was 1.13. In addition, the relative viability with Olaparib + Bortezomib (first compound 0.253 µM) amounted to 0.96; in the assay with Olaparib + Bortezomib (first compound 2.53 µM), 0.726; in the assay with Olaparib + Bortezomib (first compound 8 µM), 0.626; in the assay with Carfilzomib + Crizotinib (first compound 0.001 µM), 0.585; with Carfilzomib + Crizotinib (first compound 0.003162 µM), 0.667; with Carfilzomib + Crizotinib (first compound 0.01 µM), 0.584. Also, the relative viability with Carfilzomib + Crizotinib (first compound 0.03162 µM) came to 0.291; with Carfilzomib + Crizotinib (first compound 0.1 µM), 0.16; with Olaparib + Dasatinib (first compound 0.08 µM), 0.624; with Olaparib + Dasatinib (first compound 0.253 µM), 0.467; with Olaparib + Dasatinib (first compound 2.53 µM), 0.506; in the assay with Olaparib + Dasatinib (first compound 8 µM) it was 0.228.

For NCI-H2228, the relative viability stood at 0.838 in the assay with Carfilzomib + Olaparib (first compound 0.001 µM); 0.813 with Carfilzomib + Olaparib (first compound 0.003162 µM); 0.61 with Carfilzomib + Olaparib (first compound 0.01 µM); 0.0953 with Carfilzomib + Olaparib (first compound 0.03162 µM); 0.124 in the assay with Carfilzomib + Olaparib (first compound 0.1 µM); 1.02 with Olaparib + Bortezomib (first compound 0.08 µM). Also, the relative viability with Olaparib + Bortezomib (first compound 0.253 µM) is 0.821; in the assay with Olaparib + Bortezomib (first compound 2.53 µM), 1.02; with Olaparib + Bortezomib (first compound 8 µM), 0.661; with Carfilzomib + Crizotinib (first compound 0.001 µM), 0.49; in the assay with Carfilzomib + Crizotinib (first compound 0.003162 µM) it was 0.389; in the assay with Carfilzomib + Crizotinib (first compound 0.01 µM) it was 0.666. Further, the relative viability in the assay with Carfilzomib + Crizotinib (first compound 0.03162 µM) is 0.149; with Carfilzomib + Crizotinib (first compound 0.1 µM), 0.17; with Olaparib + Dasatinib (first compound 0.08 µM), 0.587; with Olaparib + Dasatinib (first compound 0.253 µM), 0.495; with Olaparib + Dasatinib (first compound 2.53 µM) it was 0.458; with Olaparib + Dasatinib (first compound 8 µM) it was 0.304.

For the cell line HCC-15, the relative viability in the assay with Carfilzomib + Olaparib (first compound 0.001 µM) turned out to be 0.73; with Carfilzomib + Olaparib (first compound 0.003162 µM), 0.771; with Carfilzomib + Olaparib (first compound 0.01 µM), 0.75; with Carfilzomib + Olaparib (first compound 0.03162 µM), 0.551; in the assay with Carfilzomib + Olaparib (first compound 0.1 µM), 0.166; with Olaparib + Bortezomib (first compound 0.08 µM), 1.18. In addition, the relative viability with Olaparib + Bortezomib (first compound 0.253 µM) turned out to be 0.984; in the assay with Olaparib + Bortezomib (first compound 2.53 µM), 1.03; in the assay with Olaparib + Bortezomib (first compound 8 µM), 0.9; with Carfilzomib + Crizotinib (first compound 0.001 µM) it was 0.765; with Carfilzomib + Crizotinib (first compound 0.003162 µM), 0.85; in the assay with Carfilzomib + Crizotinib (first compound 0.01 µM), 0.844. Moreover, the relative viability in the assay with Carfilzomib + Crizotinib (first compound 0.03162 µM) worked out at 0.545; in the assay with Carfilzomib + Crizotinib (first compound 0.1 µM) it was 0.185; in the assay with Olaparib + Dasatinib (first compound 0.08 µM), 0.659; with Olaparib + Dasatinib (first compound 0.253 µM), 0.584; in the assay with Olaparib + Dasatinib (first compound 2.53 µM) it was 0.655; with Olaparib + Dasatinib (first compound 8 µM), 0.631.

Take RERF-LC-KJ: the relative viability with Carfilzomib + Olaparib (first compound 0.001 µM) was 1.05; with Carfilzomib + Olaparib (first compound 0.003162 µM), 0.898; with Carfilzomib + Olaparib (first compound 0.01 µM) it was 0.91; with Carfilzomib + Olaparib (first compound 0.03162 µM), 0.379; in the assay with Carfilzomib + Olaparib (first compound 0.1 µM) it was 0.22; with Olaparib + Bortezomib (first compound 0.08 µM) it was 1.19. Besides, the relative viability with Olaparib + Bortezomib (first compound 0.253 µM) is 1.14; in the assay with Olaparib + Bortezomib (first compound 2.53 µM), 1.03; with Olaparib + Bortezomib (first compound 8 µM) it was 1.06; with Carfilzomib + Crizotinib (first compound 0.001 µM), 0.899; in the assay with Carfilzomib + Crizotinib (first compound 0.003162 µM), 0.801; in the assay with Carfilzomib + Crizotinib (first compound 0.01 µM), 0.86. The relative viability is 0.78 with Carfilzomib + Crizotinib (first compound 0.03162 µM); 0.359 in the assay with Carfilzomib + Crizotinib (first compound 0.1 µM); 0.891 with Olaparib + Dasatinib (first compound 0.08 µM); 0.81 in the assay with Olaparib + Dasatinib (first compound 0.253 µM); 0.858 in the assay with Olaparib + Dasatinib (first compound 2.53 µM); 0.8 with Olaparib + Dasatinib (first compound 8 µM).

Regarding NCI-H647, the relative viability with Carfilzomib + Olaparib (first compound 0.001 µM) was found to be 0.641; with Carfilzomib + Olaparib (first compound 0.003162 µM), 0.644; in the assay with Carfilzomib + Olaparib (first compound 0.01 µM) it was 0.0662; with Carfilzomib + Olaparib (first compound 0.03162 µM) it was 0.0256; in the assay with Carfilzomib + Olaparib (first compound 0.1 µM), 0.023; in the assay with Olaparib + Bortezomib (first compound 0.08 µM), 1.18. Besides, the relative viability is 0.942 with Olaparib + Bortezomib (first compound 0.253 µM); 0.864 with Olaparib + Bortezomib (first compound 2.53 µM); 0.416 with Olaparib + Bortezomib (first compound 8 µM); 0.847 with Carfilzomib + Crizotinib (first compound 0.001 µM); 1.04 in the assay with Carfilzomib + Crizotinib (first compound 0.003162 µM); 0.713 with Carfilzomib + Crizotinib (first compound 0.01 µM). Also, the relative viability with Carfilzomib + Crizotinib (first compound 0.03162 µM) turned out to be 0.0319; with Carfilzomib + Crizotinib (first compound 0.1 µM), 0.0277; with Olaparib + Dasatinib (first compound 0.08 µM), 0.249; with Olaparib + Dasatinib (first compound 0.253 µM), 0.181; with Olaparib + Dasatinib (first compound 2.53 µM), 0.189; in the assay with Olaparib + Dasatinib (first compound 8 µM), 0.175.

Regarding 201T, the relative viability with Carfilzomib + Olaparib (first compound 0.001 µM) came to 0.83; in the assay with Carfilzomib + Olaparib (first compound 0.003162 µM), 0.838; with Carfilzomib + Olaparib (first compound 0.01 µM), 0.856; with Carfilzomib + Olaparib (first compound 0.03162 µM), 0.907; with Carfilzomib + Olaparib (first compound 0.1 µM), 0.546; in the assay with Olaparib + Bortezomib (first compound 0.08 µM), 1.19. For the same cell line, the relative viability with Olaparib + Bortezomib (first compound 0.253 µM) turned out to be 1.03; in the assay with Olaparib + Bortezomib (first compound 2.53 µM) it was 1.11; in the assay with Olaparib + Bortezomib (first compound 8 µM) it was 1.07; in the assay with Carfilzomib + Crizotinib (first compound 0.001 µM) it was 1.02; with Carfilzomib + Crizotinib (first compound 0.003162 µM), 1.1; with Carfilzomib + Crizotinib (first compound 0.01 µM) it was 1.04. Besides, the relative viability with Carfilzomib + Crizotinib (first compound 0.03162 µM) came out at 1.06; in the assay with Carfilzomib + Crizotinib (first compound 0.1 µM), 0.91; with Olaparib + Dasatinib (first compound 0.08 µM), 0.576; in the assay with Olaparib + Dasatinib (first compound 0.253 µM), 0.558; with Olaparib + Dasatinib (first compound 2.53 µM) it was 0.46; with Olaparib + Dasatinib (first compound 8 µM), 0.501.

On to HCC-366, for which the relative viability in the assay with Carfilzomib + Olaparib (first compound 0.001 µM) is 0.364; in the assay with Carfilzomib + Olaparib (first compound 0.003162 µM), 0.39; in the assay with Carfilzomib + Olaparib (first compound 0.01 µM), 0.362; in the assay with Carfilzomib + Olaparib (first compound 0.03162 µM) it was 0.311; with Carfilzomib + Olaparib (first compound 0.1 µM), 0.0358; with Olaparib + Bortezomib (first compound 0.08 µM), 1.06. Further, the relative viability with Olaparib + Bortezomib (first compound 0.253 µM) came out at 0.959; with Olaparib + Bortezomib (first compound 2.53 µM) it was 0.913; with Olaparib + Bortezomib (first compound 8 µM) it was 0.384; in the assay with Carfilzomib + Crizotinib (first compound 0.001 µM), 0.396; with Carfilzomib + Crizotinib (first compound 0.003162 µM), 0.518; in the assay with Carfilzomib + Crizotinib (first compound 0.01 µM), 0.674. For the same cell line, the relative viability amounted to 0.299 in the assay with Carfilzomib + Crizotinib (first compound 0.03162 µM); 0.016 with Carfilzomib + Crizotinib (first compound 0.1 µM); 0.484 in the assay with Olaparib + Dasatinib (first compound 0.08 µM); 0.503 with Olaparib + Dasatinib (first compound 0.253 µM); 0.498 with Olaparib + Dasatinib (first compound 2.53 µM); 0.253 with Olaparib + Dasatinib (first compound 8 µM).
